Results on 32 molecules are retold here after patent US8791107B2, “N-substituted oxazinopteridines and oxazinopteridinones” (Takeda Pharmaceutical Company Limited, priority 2011, dated 2014).

The first assay deals with T1, PI3Kδ (Homo sapiens, UniProt O00329).
T1 construct: The protein is full length and co-expressed with untagged PIK3R1; GST; purchased Invitrogen PV5274
T1 sequence (O00329 whole entry): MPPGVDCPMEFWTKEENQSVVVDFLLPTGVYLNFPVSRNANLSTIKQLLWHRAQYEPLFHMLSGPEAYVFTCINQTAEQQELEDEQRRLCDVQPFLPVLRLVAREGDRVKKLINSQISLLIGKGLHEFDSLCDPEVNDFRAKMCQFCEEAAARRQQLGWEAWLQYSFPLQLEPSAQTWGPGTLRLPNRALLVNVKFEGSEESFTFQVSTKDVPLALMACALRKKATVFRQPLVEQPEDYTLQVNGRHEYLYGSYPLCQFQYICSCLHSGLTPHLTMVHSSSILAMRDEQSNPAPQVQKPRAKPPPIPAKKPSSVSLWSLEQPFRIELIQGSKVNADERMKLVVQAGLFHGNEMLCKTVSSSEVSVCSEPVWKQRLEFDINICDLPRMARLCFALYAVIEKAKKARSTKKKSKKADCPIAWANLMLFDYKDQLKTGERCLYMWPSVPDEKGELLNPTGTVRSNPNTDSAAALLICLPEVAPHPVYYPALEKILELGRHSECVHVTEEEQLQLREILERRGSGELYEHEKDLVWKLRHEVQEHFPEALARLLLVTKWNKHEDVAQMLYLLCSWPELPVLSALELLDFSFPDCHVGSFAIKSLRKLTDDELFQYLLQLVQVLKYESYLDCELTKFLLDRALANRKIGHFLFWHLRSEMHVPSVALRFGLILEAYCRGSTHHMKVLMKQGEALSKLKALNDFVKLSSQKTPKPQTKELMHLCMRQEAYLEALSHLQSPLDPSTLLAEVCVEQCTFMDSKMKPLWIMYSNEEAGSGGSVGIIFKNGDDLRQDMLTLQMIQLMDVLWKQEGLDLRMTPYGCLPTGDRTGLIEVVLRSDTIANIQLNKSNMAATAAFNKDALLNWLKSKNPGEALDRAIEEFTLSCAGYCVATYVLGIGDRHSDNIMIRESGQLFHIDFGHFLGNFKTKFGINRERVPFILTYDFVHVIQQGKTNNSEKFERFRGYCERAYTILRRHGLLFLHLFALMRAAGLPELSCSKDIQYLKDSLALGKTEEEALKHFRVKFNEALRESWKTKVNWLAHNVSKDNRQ
T1 sequence (P27986 whole entry partner): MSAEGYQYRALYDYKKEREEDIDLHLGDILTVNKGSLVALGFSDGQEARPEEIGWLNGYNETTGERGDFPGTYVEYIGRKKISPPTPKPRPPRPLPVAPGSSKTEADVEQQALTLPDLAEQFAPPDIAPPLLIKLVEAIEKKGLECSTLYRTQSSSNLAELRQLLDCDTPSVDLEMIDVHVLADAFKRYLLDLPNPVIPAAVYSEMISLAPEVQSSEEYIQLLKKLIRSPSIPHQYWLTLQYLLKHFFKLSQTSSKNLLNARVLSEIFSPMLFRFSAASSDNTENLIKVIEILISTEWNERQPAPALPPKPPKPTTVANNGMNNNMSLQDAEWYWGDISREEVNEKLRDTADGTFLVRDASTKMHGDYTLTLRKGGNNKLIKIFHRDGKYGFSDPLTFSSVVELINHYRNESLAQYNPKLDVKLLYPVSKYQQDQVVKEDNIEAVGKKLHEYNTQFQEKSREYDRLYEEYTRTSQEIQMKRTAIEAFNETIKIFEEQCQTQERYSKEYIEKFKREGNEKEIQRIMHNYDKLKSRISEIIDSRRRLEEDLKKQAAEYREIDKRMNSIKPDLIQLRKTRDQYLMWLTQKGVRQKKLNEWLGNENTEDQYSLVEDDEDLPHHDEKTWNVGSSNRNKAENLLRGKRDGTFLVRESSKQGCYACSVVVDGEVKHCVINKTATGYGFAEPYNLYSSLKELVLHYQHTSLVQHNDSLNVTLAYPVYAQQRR
The assay is described as follows: PI3Kδ inhibition, modified PIK3CD Adapta TR-FRET assay. The settings on record: recombinant GST-tagged full length PIK3CD co-expressed with PIK3R1 (p85α); 2 μM ATP, 50 μM PIP2. The assay is classed as biochemical. The protocol:
The activity of compounds as PI3Kδ inhibitors may be determined by a variety of methods, including in vitro and in vivo methods. The following in vitro assay measures a test compound's ability to inhibit PI3Kδ-mediated phosphorylation of PIP2 and ATP.
Recombinant GST-tagged PIK3CD is purchased from Invitrogen (Part Number: PV5274). The protein is full length and co-expressed with untagged PIK3R1, phosphoinositide-3-kinase regulatory subunit 1 (p85α). The protein is stored at −20° C. in 50 mM TRIS (pH 7.5), 150 mM NaCl, 0.5 mM EDTA, 0.02% Triton® X-100, 2 mM DTT, and 50% glycerol.
A modified PIK3CD Adapta® assay (Invitrogen, Carlsbad, Calif.) is used to measure PI3Kδ inhibition of the example compounds. The assay has two phases. In the first phase, kinase reaction components, which include the enzyme (PIK3CD), substrates (PIP2, ATP), test compound (inhibitor), and assay buffer are added to each well, and the reaction is allowed to incubate for a pre-determined period of time. […] In the presence of the inhibitor, the amount of ADP formed by the kinase reaction is reduced, and the resulting intact antibody-tracer interaction maintains a high TR-FRET signal.
The reaction buffer contains 50 mM Hepes (pH 7.5), 3 mM MgCl2, 1 mM EGTA, 100 mM NaCl, 0.03% CHAPS; 2 mM DTT is added fresh prior to each experiment. […] Next, test compounds (2 μL) from a source plate (5% dilution plate) are introduced into the wells. The final DMSO concentration in each assay well is 1%. […] Other wells contain test compounds serially diluted across the plate 11 times for a total of 12 data points. The kinase reactions are carried out at room temperature and are initiated by the addition of 4 μL of solution containing 2 μM ATP and 50 μM PIP2. […] This emission signal is referenced or “ratioed” to the emission from Eu at 620 nm. […] The percent inhibition for a given inhibitor concentration is computed from % conversion for the reaction and for the positive and negative controls.
(In general: TR-FRET usually uses a lanthanide donor and a delayed reading to cut background.)
Take `CNC(=O)Nc1ccc(-c2ncc3c(n2)N2CCOC[C@H]2C(=O)N3[C@@H](C)c2ccc(C)cc2)cc1` (single isomer, unassigned) [Example 86]: the “PI3Kδ Inhibition (pIC50)” value is 8.1.

As to `CNC(=O)Nc1ccc(-c2ncc3c(n2)N2CCOC[C@@H]2C(=O)N3[C@@H](C)c2ccc(C)cc2)cc1` (single isomer, unassigned) [Example 87], the “PI3Kδ Inhibition (pIC50)” value is recorded as 7.1.

Still in this assay, the particulars now being: recombinant GST-tagged full length PIK3CD co-expressed with PIK3R1 (p85α); 2 μM ATP, 50 μM PIP2; read-out: PI3Kδ Inhibition (pIC50) (converted).
Consider `C[C@@H](c1ccccc1)N1C(=O)C2COCCN2c2nc(-c3cc[nH]n3)ncc21` (mixture of isomers) [Example 97, 5-((5)-1-phenylethyl)-2-(1H-pyrazol-3-yl)-6a,7,9,10-tetrahydro-[1,4]oxazino[3,4-h]pteridin-6(5H)-one], for which the IC50 was 1 µM.

In the case of `C[C@@H](c1ccc(Cl)cc1)N1C(=O)C2COCCN2c2nc(-c3cnc(N)nc3)ncc21` (mixture of isomers) [Example 162], the IC50 was 0.00631 µM.

For `C[C@@H](c1ccc(Cl)cc1)N1C(=O)C2COCCN2c2nc(-c3cccc4[nH]ccc34)ncc21` (mixture of isomers) [Example 163, 5-((S)-1-(4-chlorophenyl)ethyl)-2-(1H-indol-4-yl)-6a,7,9,10-tetrahydro-[1,4]oxazino[3,4-h]pteridin-6(5H)-one], the IC50 was 0.0316 µM.

Take `CNC(=O)Nc1ccc(-c2ncc3c(n2)N2CCOCC2C(=O)N3[C@@H](C)c2ccc(Cl)cc2)cc1` (single isomer, unassigned) [Example 85]: the IC50 is 0.0126 µM.

For the molecule `O=C1Nc2cnc(-c3cccc4[nH]ccc34)nc2N2CCOC[C@H]12` (single isomer, unassigned) [Example 149], the IC50 is 0.2 µM.

With `O=C1Nc2cnc(-c3cccc4[nH]ccc34)nc2N2CCOC[C@@H]12` (single isomer, unassigned) [Example 150], the IC50 is 0.00501 µM.

As for `Cc1ccc([C@H](C)N2C(=O)[C@@H]3COCCN3c3nc(-c4cccc5[nH]ccc45)ncc32)cc1` (single isomer, unassigned) [Example 153], the IC50 was 0.0398 µM.

Consider `CNC(=O)Nc1ccc(-c2ncc3c(n2)N2CCOCC2C(=O)N3[C@@H](C)c2ccc(Cl)cc2)cc1` (single isomer, unassigned) [Example 161], for which the IC50 was 0.00398 µM.

As to `Nc1ncc(-c2ncc3c(n2)N2CCOCC2CN3)cn1` (centres unmarked) [Example 1, 5-(5,6,6a,7,9,10-hexahydro-[1,4]oxazino[3,4-h]pteridin-2-yl)pyrimidin-2-amine], the IC50 is 0.0316 µM.

Consider `c1cc(-c2ncc3c(n2)N2CCOCC2CN3)c2cc[nH]c2c1` (centres unmarked) [Example 2, 2-(1H-indol-4-yl)-5,6,6a,7,9,10-hexahydro-[1,4]oxazino[3,4-h]pteridine], for which the IC50 was 0.0501 µM.

Consider `c1cc(-c2ncc3c(n2)N2CCOCC2CN3CC2CC2)c2cc[nH]c2c1` (centres unmarked) [Example 3, 5-(cyclopropylmethyl)-2-(1H-indol-4-yl)-5,6,6a,7,9,10-hexahydro-[1,4]oxazino[3,4-h]pteridine], for which the IC50 was 0.00501 µM.

In the case of `CS(=O)(=O)c1ccc(CN2CC3COCCN3c3nc(-c4cnc(N)nc4)ncc32)cc1` (centres unmarked) [Example 4, 5-(5-(4-(methylsulfonyl)benzyl)-5,6,6a,7,9,10-hexahydro-[1,4]oxazino[3,4-h]pteridin-2-yl)pyrimidin-2-amine], the IC50 is 0.00398 µM.

For the molecule `CS(=O)(=O)c1ccc(CN2CC3COCCN3c3nc(-c4cccc5[nH]ccc45)ncc32)c(Cl)c1` (centres unmarked) [Example 5, 5-(2-chloro-4-(methylsulfonyl)benzyl)-2-(1H-indol-4-yl)-5,6,6a,7,9,10-hexahydro-[1,4]oxazino[3,4-h]pteridine], the IC50 is 0.01 µM.

`CNC(=O)Nc1ccc(-c2ncc3c(n2)N2CCOCC2CN3Cc2ccc(S(C)(=O)=O)cc2Cl)cc1` (centres unmarked) [Example 6, 1-(4-(5-(2-chloro-4-(methylsulfonyl)benzyl)-5,6,6a,7,9,10-hexahydro-[1,4]oxazino[3,4-h]pteridin-2-yl)phenyl)-3-methylurea]: the IC50 was 0.01 µM.

For the molecule `CS(=O)(=O)c1ccc(CN2CC3COCCN3c3nc(-c4cnc(N)nc4)ncc32)c(Cl)c1` (centres unmarked) [Example 7, 5-(5-(2-chloro-4-(methylsulfonyl)benzyl)-5,6,6a,7,9,10-hexahydro-[1,4]oxazin[3,4-h]pteridin-2-yl)pyrimidin-2-amine], the IC50 was 0.00794 µM.

As to `COc1ccc2c(-c3ncc4c(n3)N3CCOCC3CN4)c[nH]c2c1` (centres unmarked) [Example 8, 2-(6-methoxy-1H-indol-3-yl)-5,6,6a,7,9,10-hexahydro-[1,4]oxazino[3,4-h]pteridine], the IC50 was more than 10 µM.

As for `COc1cccc2c(-c3ncc4c(n3)N3CCOCC3CN4)c[nH]c12` (centres unmarked) [Example 9, 2-(7-methoxy-1H-indol-3-yl)-5,6,6a,7,9,10-hexahydro-[1,4]oxazino[3,4-h]pteridine], the IC50 is more than 10 µM.

Regarding `c1cc(-c2ncc3c(n2)N2CCOCC2CN3)c2nc[nH]c2c1` (centres unmarked) [Example 10, 2-(1H-benzo[d]imidazol-4-yl)-5,6,6a,7,9,10-hexahydro-[1,4]oxazino[3,4-h]pteridine], the IC50 is 3.16 µM.

With `Clc1cccc2c(-c3ncc4c(n3)N3CCOCC3CN4)c[nH]c12` (centres unmarked) [Example 11, 2-(7-chloro-1H-indol-3-yl)-5,6,6a,7,9,10-hexahydro-[1,4]oxazino[3,4-h]pteridine], the IC50 is more than 10 µM.

`Oc1cc2c(-c3ncc4c(n3)N3CCOCC3CN4)cccc2[nH]1` (centres unmarked) [Example 12, 4-(5,6,6a,7,9,10-hexahydro-[1,4]oxazino[3,4-h]pteridin-2-yl)-1H-indol-2-ol]: the IC50 was 7.94 µM.

On to `CC(C)(O)c1ccc(CN2CC3COCCN3c3nc(-c4cccc5[nH]ccc45)ncc32)cc1` (centres unmarked) [Example 13, 2-(4-((2-(1H-indol-4-yl)-6a,7,9,10-tetrahydro-[1,4]oxazino[3,4-h]pteridin-5(6H)-yl)methyl)phenyl)propan-2-ol], for which the IC50 is 0.0158 µM.

As for `COc1cc(-c2ncc3c(n2)N2CCOCC2CN3)ccn1` (centres unmarked) [Example 14, 2-(2-methoxypyridin-4-yl)-5,6,6a,7,9,10-hexahydro-[1,4]oxazino[3,4-h]pteridine], the IC50 was 5.01 µM.

For the molecule `c1cc(-c2ncc3c(n2)N2CCOCC2CN3)c2cc[nH]c2n1` (centres unmarked) [Example 15, 2-(1H-pyrrolo[2,3-b]pyridin-4-yl)-5,6,6a,7,9,10-hexahydro-[1,4]oxazino[3,4-h]pteridine], the IC50 is 0.398 µM.

Turning to `Cc1c[nH]c2c(F)ccc(-c3ncc4c(n3)N3CCOCC3CN4Cc3ccc(S(C)(=O)=O)cc3)c12` (centres unmarked) [Example 16, 2-(7-fluoro-3-methyl-1H-indol-4-yl)-5-(4-(methylsulfonyl)benzyl)-5,6,6a,7,9,10-hexahydro-[1,4]oxazino[3,4-h]pteridine], the IC50 is 6.31 µM.

`CS(=O)(=O)c1ccc(CN2CC3COCCN3c3nc(-c4ccc(F)c5[nH]ccc45)ncc32)cc1` (centres unmarked) [Example 17, 2-(7-fluoro-1H-indol-4-yl)-5-(4-(methylsulfonyl)benzyl)-5,6,6a,7,9,10-hexahydro-[1,4]oxazino[3,4-h]pteridine]: the IC50 was 0.0398 µM.

With `Cc1ccc(S(=O)(=O)N2CC3COCCN3c3nc(-c4cccc5[nH]ccc45)ncc32)cc1` (centres unmarked) [Example 18, 2-(1H-indol-4-yl)-5-tosyl-5,6,6a,7,9,10-hexahydro-[1,4]oxazino[3,4-h]pteridine], the IC50 is 0.398 µM.

As for `CS(=O)(=O)c1ccc(CN2CC3COCCN3c3nc(-c4cccc5[nH]ccc45)ncc32)cc1` (centres unmarked) [Example 19, 2-(1H-indol-4-yl)-5-(4-(methylsulfonyl)benzyl)-5,6,6a,7,9,10-hexahydro-[1,4]oxazino[3,4-h]pteridine], the IC50 was 0.01 µM.

Take `COc1ccc(CC(=O)N2CC3COCCN3c3nc(-c4cccc5[nH]ccc45)ncc32)cc1` (centres unmarked) [Example 20, 1-(2-(1H-indol-4-yl)-6a,7,9,10-tetrahydro-[1,4]oxazino[3,4-h]pteridin-5(6H)-yl)-2-(4-methoxyphenyl)ethanone]: the IC50 was 0.501 µM.

With `CS(=O)(=O)c1ccc(CN2CC3COCCN3c3nc(-c4cccc5[nH]c(C(F)(F)F)cc45)ncc32)cc1` (centres unmarked) [Example 21, 5-(4-(methylsulfonyl)benzyl)-2-(2-(trifluoromethyl)-1H-indol-4-yl)-5,6,6a,7,9,10-hexahydro-[1,4]oxazino[3,4-h]pteridine], the IC50 was 1.26 µM.

As for `CS(=O)(=O)c1ccc(CN2CC3COCCN3c3nc(-c4cccc5[nH]ncc45)ncc32)cc1` (centres unmarked) [Example 22, 2-(1H-indazol-4-yl)-5-(4-(methylsulfonyl)benzyl)-5,6,6a,7,9,10-hexahydro-[1,4]oxazino[3,4-h]pteridine], the IC50 is 0.02 µM.
